This passage reports Ratio IC50 and solubility results from ChEMBL document CHEMBL5370601, “Synthesis and Binding Mode Predictions of Novel Siglec-7 Ligands” (J Med Chem, 2023).

The target in series [1] is Sialic acid-binding Ig-like lectin 7 (Homo sapiens) (UniProt Q9Y286). In words: Potency index, ratio of test compound IC50 to (2R,4S,5R,6R)-2-(3-(4-([1,1'-biphenyl]-4-yl)-1H-1,2,3-triazol-1-yl)propoxy)-5-acetamido-4-hydroxy-6-((1R,2R)-1,2,3-trihydroxypropyl)tetrahydro-2H-pyran-2-carboxylate Sodium IC50 for competitive inhibition of IgG1-fused human Siglec-7 Fc domain preincubated for 10 mins followed by addition of red blood cells incubated for 20 mins on ice by sandwich FACS analysis. Particulars: time 30.0 min. For orientation: Flow cytometry measures light scatter and fluorescence of single cells or particles in a stream.

Series [2] shares this target. In words: Potency index, ratio of test compound IC50 to (2R,4S,5R,6R)-2-(3-(4-([1,1'-biphenyl]-4-yl)-1H-1,2,3-triazol-1-yl)propoxy)-5-acetamido-6-((1R,2R)-1,2-dihydroxy-3-(methylsulfonamido)propyl)-4-hydroxytetrahydro-2H-pyran-2-carboxylate Sodium IC50 for competitive inhibition of IgG1-fused human Siglec-7 Fc domain preincubated for 10 mins followed by addition of red blood cells incubated for 20 mins on ice by sandwich FACS analysis. The following applies: time 30.0 min.

A short description of series [3]: Solubility in PBS. The series is classed as physicochemical. Particulars: buffer.
Series [4] is described as follows: Solubility in water. The series is classed as physicochemical. Particulars: buffer.
A short description of series [5]: Solubility in methanol. In kind it is physicochemical.

Sequence of Sialic acid-binding Ig-like lectin 7 (Homo sapiens) (Q9Y286 whole entry, the tested form may be a part): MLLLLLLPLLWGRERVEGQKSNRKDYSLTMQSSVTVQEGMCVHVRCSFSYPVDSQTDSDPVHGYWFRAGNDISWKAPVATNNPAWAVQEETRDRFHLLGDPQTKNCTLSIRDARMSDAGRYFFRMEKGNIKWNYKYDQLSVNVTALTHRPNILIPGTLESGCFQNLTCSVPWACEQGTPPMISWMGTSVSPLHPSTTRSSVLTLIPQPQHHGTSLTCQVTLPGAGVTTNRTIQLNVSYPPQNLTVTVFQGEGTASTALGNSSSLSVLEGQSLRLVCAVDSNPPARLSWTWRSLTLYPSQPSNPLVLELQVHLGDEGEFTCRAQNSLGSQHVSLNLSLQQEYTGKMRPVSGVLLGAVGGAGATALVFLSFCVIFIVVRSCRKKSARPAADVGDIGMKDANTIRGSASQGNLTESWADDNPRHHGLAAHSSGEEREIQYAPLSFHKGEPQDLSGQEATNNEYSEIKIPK

Consider `CC(=O)N[C@H]1[C@H]([C@H](O)[C@H](O)CC(=O)O)O[C@@](OCCCn2cc(-c3ccc(-c4ccccc4)cc3)nn2)(C(=O)O)C[C@@H]1O`, for which the Ratio IC50 in series [1] worked out at 0.75.

For `CCC(=O)NCC[C@@H](O)[C@@H](O)[C@@H]1O[C@@](OCCCn2cc(-c3ccc(-c4ccccc4)cc3)nn2)(C(=O)O)C[C@H](O)[C@H]1NC(C)=O`, the Ratio IC50 in series [1] was under 0.5.

Take `CC(=O)N[C@H]1[C@H]([C@H](O)[C@H](O)CCNC(=O)Cc2ccccc2)O[C@@](OCCCn2cc(-c3ccc(-c4ccccc4)cc3)nn2)(C(=O)O)C[C@@H]1O`: the Ratio IC50 in series [1] was under 0.5.

In the case of `CS(=O)(=O)NC[C@@H](O)[C@@H](O)[C@@H]1O[C@@](OCCCn2cc(-c3ccc(-c4ccccc4)cc3)nn2)(C(=O)O)C[C@H](O)[C@H]1NC(=O)CO`, the Ratio IC50 in series [2] came out at 1.2.

In the case of `O=C(COCc1ccccc1)N[C@H]1[C@H]([C@H](O)[C@H](O)CO)O[C@@](OCCCn2cc(-c3ccc(-c4ccccc4)cc3)nn2)(C(=O)[O-])C[C@@H]1O.[Na+]`, the solubility result in series [3] and in series [4] was “Insoluble” throughout.

Turning to `N[C@H]1[C@H]([C@H](O)[C@H](O)CO)O[C@@](OCCCn2cc(-c3ccc(-c4ccccc4)cc3)nn2)(C(=O)O)C[C@@H]1O`, the solubility entry in series [5] and in series [4] was “Insoluble” throughout.

On to `O=C(CO)N[C@H]1[C@H]([C@H](O)[C@H](O)CO)O[C@@](OCCCn2cc(-c3ccc(-c4ccccc4)cc3)nn2)(C(=O)O)C[C@@H]1O`, for which the Ratio IC50 in series [1] came out at 1.5.

Turning to `O=C(CF)N[C@H]1[C@H]([C@H](O)[C@H](O)CO)O[C@@](OCCCn2cc(-c3ccc(-c4ccccc4)cc3)nn2)(C(=O)O)C[C@@H]1O`, the Ratio IC50 in series [1] is 1.6.

As to `CS(=O)(=O)NC[C@@H](O)[C@@H](O)[C@@H]1O[C@@](OCCCn2cc(-c3ccc(-c4ccccc4)cc3)nn2)(C(=O)O)C[C@H](O)[C@H]1NC(=O)COCc1ccccc1`, in series [2], the Ratio IC50 was 0.3.

Regarding `CS(=O)(=O)NC[C@@H](O)[C@@H](O)[C@@H]1O[C@@](OCCCn2cc(-c3ccc(-c4ccccc4)cc3)nn2)(C(=O)O)C[C@H](O)[C@H]1NC(=O)CF`, in series [2], the Ratio IC50 worked out at 1.5.
